# Test results reported in patent publication US20260344670A1, “BIXLOZONE MIXTURES WITH PETHOXAMID” (FMC CORPORATION, priority 2022, published 2026).
# Columns and labels:
# Format in all cases: in vivo
# VERPE = test: pre-emergence control of VERPE in corn (efficacy, Colby synergy); conditions: bixlozone 375, pethoxamid 800, tank mix 375 + 800, premix 375 + 775 g/ha
# Text: (§1) Table 11. Synergy data of various forms and mixtures of bixlozone and pethoxamid after pre-emergence application on corn at the crop row closure stage (BBCH 18). The notations in parentheses show the forms and amounts (in g/ha) of applied bixlozone and pethoxamid, respectively. Where “tank” is noted, the mix is a tank mix. Where “premix” is noted, the mix is a premix. Where there is no notation, the value shown is the Colby calculation for the expected value from separate mixtures.
# (§2) Various forms, compositions, and mixtures of bixlozone and pethoxamid were applied to corn before emergence. […] Mixtures of bixlozone with 800 g/ha pethoxamid improved weed spectrum on a range of broad leaf weeds (e.g., CHEAL and ABUTH) and grasses (e.g., ECHCG, DIGSA, and SETVI). Combinations of bixlozone and pethoxamid in pre-emergence applications were very safe with no clear pethoxamid rate effect.
# (§3) Table 12. Efficacies of various forms and mixtures of bixlozone and pethoxamid after pre-emergence application on corn. Weeds were present at ≥5 pl/m^2. Concentrations are shown in parentheses in g/ha.
# Various forms, compositions, and mixtures of bixlozone and pethoxamid were applied to corn before emergence. […] Mixtures of bixlozone with 300 g/ha pethoxamid improved weed spectrum on a range of broad leaf weeds (e.g., SOLNI and ABUTH). […]
# [1] = test system: Potentilla tridentate (PTLTR); test: pre-emergence control of PTLTR in corn (Colby synergy); conditions: bixlozone 375, pethoxamid 1200, mixtures 375 + 1200 g/ha
# Text: (§4) [formula] • where ppm=milligrams of active ingredient (=a.i.) per liter of spray mixture X=% action by component A using p ppm of active ingredient Y=% action by component B using q ppm of active ingredient. If the ratio R defined as the action actually observed (O) divided by the expected action (E) is >1 then the action of the combination is superadditive, i.e. there is a synergistic effect. For a more detailed description of the Colby formula, see Colby, S. R. “Calculating Synergistic and Antagonistic Responses of Herbicide Combination”, Weeds, Vol. 15, pages 20-22; 1967; see also Limpel et al., Proc. NEWCC 16:48-53 (1962).
# (§5) The herbicidal compounds bixlozone and pethoxamid were applied in a variety of forms and at a variety of amounts, application rates, and normalities. Efficacy of the herbicidal compositions was evaluated with reference to a scale of 0% to 100% in comparison with untreated control plots. 0 means no damage to the harmful plants and 100 means complete destruction of the harmful plants. Plants per square meter is indicated by “pl/m^2”, and grams per hectare is indicated by “g/ha”. […]
# Setaria viridis (SETVI) = test: pre-emergence control of SETVI in corn (efficacy, Colby synergy)
# Text: as §4
# (§6) As used herein, rating timings correspond to the following: A1=weed assessment at BBCH 11-12; A2=4 weeks after the application; A3=when ZEAMX crop reaches BBCH 18 (row closure); and A4=BBCH 51-59 of the ZEAMX crop.
# (§7) The herbicidal compounds bixlozone and pethoxamid were applied in a variety of forms and at a variety of amounts, application rates, and normalities. Efficacy of the herbicidal compositions was evaluated with reference to a scale of 0% to 100% in comparison with untreated control plots. 0 means no damage to the harmful plants and 100 means complete destruction of the harmful plants. Plants per square meter is indicated by “pl/m^2”, and grams per hectare is indicated by “g/ha”. The acronym “EC” means emulsifiable concentrate (a liquid, homogenous formulation to be applied as an emulsion after dilution with water); “SC” means suspension concentrate (a stable suspension of active ingredient(s) with water as the fluid); “ZC” refers to a mixed formulation of CS and SC (a stable suspension of capsules and active ingredient(s) in a fluid, normally intended for dilution with water before use).
# (§8) Various forms, compositions, and mixtures of bixlozone and pethoxamid were applied to corn before emergence. […] There was equivalent efficacy for fixed rate of bixlozone combined with pethoxamid: 1200 or 900 g/ha. Efficacy was reduced when bixlozone rate decreased from 250 to 150 g/ha. […]
# POAAN = test: pre-emergence control of POAAN in corn (efficacy, Colby synergy); conditions: bixlozone 375, pethoxamid 300, mixtures 375 + 300 g/ha
# Text: as §1
# (§9) Various forms, compositions, and mixtures of bixlozone and pethoxamid were applied to corn before emergence. […] Mixtures of bixlozone with 300 g/ha pethoxamid improved weed spectrum on a range of broad leaf weeds (e.g., SOLNI and ABUTH). Combinations of bixlozone and pethoxamid in pre-emergence applications were very safe with no clear pethoxamid rate effect.
# (§10) Table 13. Efficacies of various forms and mixtures of bixlozone and pethoxamid after pre-emergence application on corn. Weeds were present at ≥5 pl/m^2. Concentrations are shown in parentheses in g/ha.
# Various forms, compositions, and mixtures of bixlozone and pethoxamid were applied to corn before emergence. […] There was equivalent efficacy for fixed rate of bixlozone combined with pethoxamid: 1200 or 900 g/ha. Efficacy was reduced when bixlozone rate decreased from 250 to 150 g/ha.
# Table 14. […]
# ANGAR = test: pre-emergence control of ANGAR in corn (efficacy, Colby synergy); conditions: bixlozone 375, pethoxamid 800, tank mix 375 + 800, premix 375 + 775 g/ha
# Text: (§11) Table 10. Synergy data of various forms and mixtures of bixlozone and pethoxamid after pre-emergence application on corn at the crop row closure stage (BBCH 18). […] The notations in parentheses show the forms and amounts (in g/ha) of applied bixlozone and pethoxamid, respectively. Where “tank” is noted, the mix is a tank mix. Where “premix” is noted, the mix is a premix. Where there is no notation, the value shown is the Colby calculation for the expected value from separate mixtures.
# as §2, §3
# [2] = test system: Abutilon theophrasti (ABUTH); test: pre-emergence control of ABUTH in corn (efficacy, Colby synergy)
# Text: as §4, §6, §7, §8
# [3] = test system: Chenopodium album (CHEAL); test: pre-emergence control of CHEAL in corn (efficacy, Colby synergy)
# Text: as §4, §6, §7, §8
# [4] = test system: Capsella bursa-pastoris (CAPBP); test: pre-emergence control of CAPBP in corn (efficacy, Colby synergy); conditions: bixlozone 375, pethoxamid 800, tank mix 375 + 800, premix 375 + 775 g/ha
# Text: as §4, §6, §5
# DAUCA = test: pre-emergence control of DAUCA in corn (efficacy, Colby synergy); conditions: bixlozone 375, pethoxamid 300, mixtures 375 + 300 g/ha
# Text: as §1, §9, §10
# AMBEL = test: pre-emergence control of AMBEL in corn (efficacy); conditions: bixlozone 375, pethoxamid 1200, mixtures 375 + 1200 g/ha
# Text: (§12) Various forms, compositions, and mixtures of bixlozone and pethoxamid were applied to corn before emergence. […] Mixtures of bixlozone with 1200 g/ha pethoxamid improved weed spectrum on a range of broad leaf weeds (e.g., CHEAL, MATSS, and POLSS) and grasses (e.g., ECHCG, DIGSA, and SETVI). Combinations of bixlozone and pethoxamid in pre-emergence applications were very safe with no clear pethoxamid rate effect.
# Table 8. Efficacies of various forms and mixtures of bixlozone and pethoxamid after pre-emergence application on corn. Weeds were present at ≥5 pl/m^2. Concentrations are shown in parentheses in g/ha.
# [5] = test system: Matricaria chamomilla (MATCH); test: pre-emergence control of MATCH in corn (efficacy, Colby synergy)
# Text: as §4, §6, §7, §8
# FUMOF = test: pre-emergence control of FUMOF in corn (efficacy, Colby synergy); conditions: bixlozone 375, pethoxamid 800, tank mix 375 + 800, premix 375 + 775 g/ha
# Text: as §11, §2, §3
# [6] = test system: Lolium multiflorum (LOLMU); test: pre-emergence control of LOLMU in corn (Colby synergy); conditions: bixlozone 375, pethoxamid 1200, mixtures 375 + 1200 g/ha
# Text: as §4, §5
# [7] = test system: Portulaca oleracea (POROL); test: pre-emergence control of POROL in corn (Colby synergy)
# Text: as §4, §7, §12
# Solanum nigrum (SOLNI) = test: pre-emergence control of SOLNI in corn (efficacy, Colby synergy)
# Text: as §4, §6, §7, §8
# CHEPO = test: pre-emergence control of CHEPO in corn (efficacy, Colby synergy); conditions: bixlozone 375, pethoxamid 800, tank mix 375 + 800, premix 375 + 775 g/ha
# Text: as §11, §2, §3
# Senecio vulgaris (SENVU) = test: pre-emergence control of SENVU in corn (efficacy, Colby synergy); conditions: bixlozone 375, pethoxamid 800, tank mix 375 + 800, premix 375 + 775 g/ha
# Text: as §4, §6, §5
# [8] = test system: Mercurialis annua (MERAN); test: pre-emergence control of MERAN in corn (efficacy, Colby synergy)
# Text: as §4, §6, §7, §8
# [9] = test system: Xanthium strumarium (XANST); test: pre-emergence control of XANST in corn (efficacy, Colby synergy); conditions: bixlozone 375, pethoxamid 300, mixtures 375 + 300 g/ha
# Text: as §4, §6, §5
# [10] = bixlozone 375, pethoxamid 300, mixtures 375 + 300 g/ha
# [11] = bixlozone 375, pethoxamid 800, tank mix 375 + 800, premix 375 + 775 g/ha
# [12] = bixlozone 375, pethoxamid 1200, mixtures 375 + 1200 g/ha
compound,measurement,setting,value
CCOCCN(C(=O)CCl)C(=C(C)C)c1ccccc1 [pethoxamid],Efficacy,VERPE,54.4
same,Efficacy,[1],0
same,Efficacy,Setaria viridis (SETVI); [10],30
same,Efficacy,Setaria viridis (SETVI); [11],81
same,Efficacy,Setaria viridis (SETVI); [12],52.1
same,Efficacy,POAAN,7.5
same,Efficacy,ANGAR,100
same,Efficacy,[2]; [10],42.5
same,Efficacy,[2]; [11],38.9
same,Efficacy,[2]; [12],56.3
same,Efficacy,[3]; [10],35.7
same,Efficacy,[3]; [11],66.6
same,Efficacy,[3]; [12],72.2
same,Efficacy,[4],99.3
same,Efficacy,DAUCA,83
same,Efficacy,AMBEL,7.5
same,Efficacy,[5]; [10],90
same,Efficacy,[5]; [11],100
same,Efficacy,[5]; [12],77.5
same,Efficacy,FUMOF,12.5
same,Efficacy,[6],78.8
same,Efficacy,[7]; [10],48.8
same,Efficacy,[7]; [11],98.8
same,Efficacy,[7]; [12],94.6
same,Efficacy,Solanum nigrum (SOLNI); [10],28.8
same,Efficacy,Solanum nigrum (SOLNI); [11],52.5
same,Efficacy,Solanum nigrum (SOLNI); [12],76.5
same,Efficacy,CHEPO,30
same,Efficacy,Senecio vulgaris (SENVU),13.8
same,Efficacy,[8]; [10],36.3
same,Efficacy,[8]; [11],16.9
same,Efficacy,[8]; [12],48.6
same,Efficacy,[9],35
